{
  "source": "patent US11078127B2",
  "about": "“Organically chelated mineral compositions and methods thereof” (Ralco Nutrition, Inc., priority 2009, dated 2021)",
  "key": {"ruminal microorganisms": {"test_system": "ruminal microorganisms", "test": "Effect of cobalt on methane, pH, ammonia-N, and digestibility in continuous cultures of ruminal microorganisms (Table 10)", "assay_type": "cell-based", "details": "for IVDMTD (in vitro dry matter true digestibility), %: 24 h incubation; for Culture pH, Post-feeding / Methane, nmol/ml, Post-feeding: average of samples at 1, 2, 4 and 6 h after AM feeding; for Culture pH, Pre-feeding / Methane, nmol/ml, Pre-feeding: samples taken at 0 hours", "description": "Ammonia-N concentrations were not affected (P>0.10) by dietary treatments. […] There was a source x level interaction (P<0.001) for neutral detergent fiber (NDF) digestibility (Table 6). […] Earlier studies reported no effect on DM and NDF digestibility when Co was added at the 5.0 or 10.0 ppm levels."}, "[1]": {"test_system": "Fast & Fine Premium Grass Seed", "test": "Greenhouse flats, plant growth: Fast & Fine Grass seed, Flats 17-24 (Table 4)", "assay_type": "in vivo, Perennial Ryegrass, Creeping Red Fescue, Kentucky Bluegrass", "details": "1 ppm applied to the soil; second year", "description": "(§1) Sixty-four sample flats were analyzed. Empty flats were filled with about 0.25 cubic feet of Miracle Gro Soil per flat (a complete soil with enough macro-nutrients, nitrogen, phosphorus and potash to feed the plants for 3-4 months). The seeds were planted and then the seeded soil treated. Flats were watered daily. Progress was documented weekly. This number of flats resulted from running a number of positive controls and several levels of the chelated cobalt lactate per plant selection or choice.\n(§2) The makeup of 64 flats was 8 sections times 8 flats per section. The first 8 flats were planted with a mixture of clovers. Flats 9-16 were also planted with the clover mixture at 5.2 grams seed/flat versus 2.6 grams seed/flat in 1-8. Flats 17-24 were planted with Fast & Fine Seed at 2.6 grams/flat, equivalent to the seeding rate from 2008. Fast & Fine Premium Grass Seed is a commercial mixture of Indy Perennial Ryegrass, Silver Dollar Perennial Ryegrass, Boreal Creeping Red Fescue, Kelly Kentucky Bluegrass and Clearwater Kentucky Bluegrass. Flats 25-32 were planted with a mixture including green globe turnips, dwarf Essex forage rapeseed, Rangi forage and giant rapeseed. Flats 33-40 were planted with a mixture of seeds including hybrid sunflower, grain sorghum, Proso millet and buck-wheat, at 5.2 grams/flat. […]"}, "Food Plot Clover Mix": {"test_system": "Food Plot Clover Mix", "test": "Greenhouse flats, plant growth (sprouts, harvest weight, % of control): Food Plot Clover Mix, Flats 1-16 (Tables 2, 3)", "assay_type": "in vivo, mixture of clovers", "details": "Flat 13, Clover Mix 5.2 g seed/flat", "description": "as §1, §2"}, "grass": {"test_system": "grass", "test": "Growth of grass with cobalt lactate applied in the soil or sprayed (Example 1, Table 1)", "assay_type": "in vivo", "description": "In Table 1, the growth of grass when cobalt lactate was applied either in the soil (before seeding) or sprayed directly onto the grass once growing is shown for the various levels of cobalt (0, 1, 10, 100 and 1000 ppm) that was applied. Following growth 2, cuttings were made then the total weight of grass was shown for the various treatments. […] All work was done with a fully complete soil with respect to nitrogen, phosphorus and potash (Miracle Gro Soil), so that the only difference in the greenhouse flats was the applied cobalt level and the manner in which it was applied."}, "[2]": {"details": "Cobalt Medium DI H2O (spray), Target Cobalt Level 1 ppm"}, "[3]": {"details": "Cobalt Medium DI H2O (spray), Target Cobalt Level 10 ppm"}, "[4]": {"details": "Cobalt Medium DI H2O (spray), Target Cobalt Level 100 ppm"}, "[5]": {"details": "Cobalt Medium DI H2O (spray), Target Cobalt Level 1000 ppm"}, "[6]": {"details": "Cobalt Medium Soil, Target Cobalt Level 1 ppm"}, "[7]": {"details": "Cobalt Medium Soil, Target Cobalt Level 10 ppm"}, "[8]": {"details": "Cobalt Medium Soil, Target Cobalt Level 100 ppm"}, "[9]": {"details": "Cobalt Medium Soil, Target Cobalt Level 1000 ppm"}},
  "data": [
    {"smiles": "O=C([O-])[O-].[Co+2]", "note": "[Cobalt Carbonate, cobalt carbonate]", "values": [
      {"measurement": "Ammonia-N", "setting": "ruminal microorganisms; 0.2 ppm", "result": 10.79, "unit": "mg/dL"},
      {"measurement": "NDF Digestibility, %", "setting": "ruminal microorganisms; 0.2 ppm", "result": 23.16, "unit": "%"},
      {"measurement": "IVDMTD (in vitro dry matter true digestibility), %", "setting": "ruminal microorganisms; 0.2 ppm", "result": 59.35, "unit": "%"},
      {"measurement": "Culture pH, Post-feeding", "setting": "ruminal microorganisms; 0.2 ppm", "result": 5.56},
      {"measurement": "Methane, nmol/ml, Post-feeding", "setting": "ruminal microorganisms; 0.2 ppm", "result": 403.14, "unit": "nmol/mL"},
      {"measurement": "Culture pH, Pre-feeding", "setting": "ruminal microorganisms; 0.2 ppm", "result": 5.81},
      {"measurement": "Methane, nmol/ml, Pre-feeding", "setting": "ruminal microorganisms; 0.2 ppm", "result": 363.91, "unit": "nmol/mL"},
      {"measurement": "Ammonia-N", "setting": "ruminal microorganisms; 1.0 ppm", "result": 10.88, "unit": "mg/dL"},
      {"measurement": "NDF Digestibility, %", "setting": "ruminal microorganisms; 1.0 ppm", "result": 17.09, "unit": "%"},
      {"measurement": "Effect on NDF digestibility", "setting": "ruminal microorganisms; 1.0 ppm level", "result": "negative effect"},
      {"measurement": "IVDMTD (in vitro dry matter true digestibility), %", "setting": "ruminal microorganisms; 1.0 ppm", "result": 59.17, "unit": "%"},
      {"measurement": "Culture pH, Post-feeding", "setting": "ruminal microorganisms; 1.0 ppm", "result": 5.55},
      {"measurement": "Methane, nmol/ml, Post-feeding", "setting": "ruminal microorganisms; 1.0 ppm", "result": 515.35, "unit": "nmol/mL"},
      {"measurement": "Culture pH, Pre-feeding", "setting": "ruminal microorganisms; 1.0 ppm", "result": 5.88},
      {"measurement": "Methane, nmol/ml, Pre-feeding", "setting": "ruminal microorganisms; 1.0 ppm", "result": 347.82, "unit": "nmol/mL"},
      {"measurement": "Effect on methane concentration", "setting": "ruminal microorganisms; continuous cultures, P>0.10 for no effect", "result": "significant negative impact"}
    ]},
    {"smiles": "CC(O)C(=O)[O-].CC(O)C(=O)[O-].[Co+2]", "note": "(stereo not shown) [cobalt lactate]", "values": [
      {"measurement": "Grass growth", "setting": "[1]", "result": "double the grass growth"},
      {"measurement": "Growth ahead of the positive control (Delt Ag)", "setting": "Food Plot Clover Mix", "result": 13, "unit": "%"},
      {"measurement": "Grass Cuttings Weight (gms, 1st)", "setting": "grass; [2]", "result": 15.7, "unit": "gms"},
      {"measurement": "Grass Cuttings Weight (gms, 2nd)", "setting": "grass; [2]", "result": 13.9, "unit": "gms"},
      {"measurement": "Sum Grass Cuttings Weight (gms, 1st + 2nd)", "setting": "grass; [2]", "result": 29.6, "unit": "gms"},
      {"measurement": "Grass Cuttings Weight (gms, 1st)", "setting": "grass; [3]", "result": 17.76, "unit": "gms"},
      {"measurement": "Grass Cuttings Weight (gms, 2nd)", "setting": "grass; [3]", "result": 14.37, "unit": "gms"},
      {"measurement": "Sum Grass Cuttings Weight (gms, 1st + 2nd)", "setting": "grass; [3]", "result": 32.13, "unit": "gms"},
      {"measurement": "Grass Cuttings Weight (gms, 1st)", "setting": "grass; [4]", "result": 18.56, "unit": "gms"},
      {"measurement": "Grass Cuttings Weight (gms, 2nd)", "setting": "grass; [4]", "result": 26.57, "unit": "gms"},
      {"measurement": "Sum Grass Cuttings Weight (gms, 1st + 2nd)", "setting": "grass; [4]", "result": 45.13, "unit": "gms"},
      {"measurement": "Grass Cuttings Weight (gms, 1st)", "setting": "grass; [5]", "result": 24.03, "unit": "gms"},
      {"measurement": "Grass Cuttings Weight (gms, 2nd)", "setting": "grass; [5]", "result": 15.44, "unit": "gms"},
      {"measurement": "Sum Grass Cuttings Weight (gms, 1st + 2nd)", "setting": "grass; [5]", "result": 39.47, "unit": "gms"},
      {"measurement": "Grass Cuttings Weight (gms, 1st)", "setting": "grass; [6]", "result": 31.06, "unit": "gms"},
      {"measurement": "Grass Cuttings Weight (gms, 2nd)", "setting": "grass; [6]", "result": 22.73, "unit": "gms"},
      {"measurement": "Sum Grass Cuttings Weight (gms, 1st + 2nd)", "setting": "grass; [6]", "result": 53.79, "unit": "gms"},
      {"measurement": "Grass Cuttings Weight (gms, 1st)", "setting": "grass; [7]", "result": 22.8, "unit": "gms"},
      {"measurement": "Grass Cuttings Weight (gms, 2nd)", "setting": "grass; [7]", "result": 31.41, "unit": "gms"},
      {"measurement": "Sum Grass Cuttings Weight (gms, 1st + 2nd)", "setting": "grass; [7]", "result": 54.21, "unit": "gms"},
      {"measurement": "Grass Cuttings Weight (gms, 1st)", "setting": "grass; [8]", "result": 16.33, "unit": "gms"},
      {"measurement": "Grass Cuttings Weight (gms, 2nd)", "setting": "grass; [8]", "result": 10.12, "unit": "gms"},
      {"measurement": "Sum Grass Cuttings Weight (gms, 1st + 2nd)", "setting": "grass; [8]", "result": 26.45, "unit": "gms"},
      {"measurement": "Grass Cuttings Weight (gms, 1st)", "setting": "grass; [9]", "result": 5.15, "unit": "gms"},
      {"measurement": "Grass Cuttings Weight (gms, 2nd)", "setting": "grass; [9]", "result": 1.81, "unit": "gms"},
      {"measurement": "Sum Grass Cuttings Weight (gms, 1st + 2nd)", "setting": "grass; [9]", "result": 6.96, "unit": "gms"},
      {"measurement": "Growth of grass", "setting": "grass; applied in the soil at 1 or 10 ppm or applied by spray at 100 ppm", "result": "roughly doubled"}
    ]}
  ]
}
